pIC50: −log10 of the molar value.
Assays:
Ras farnesyl transferase [1] = target: T1, Ras farnesyl transferase (Homo sapiens, UniProt P49354+P49356); test: In vitro inhibitory activity for Ras farnesyl transferase, H-Ras substrate; type: biochemical
T1 construct: made in house

Ras farnesyl transferase [2] = target: T2, Ras farnesyl transferase (Rattus norvegicus, UniProt Q02293+Q04631); test: In vivo (cellular) inhibitory activity for Ras farnesyl transferase, Rat2 cell line transformed with fused protein of H-Ras substituted with polybasic lysine domain at C-terminus of K-Ras; type: cell-based
T2 construct: endogenous in cells; host or cells: Rat2 fibroblasts transformed with H-Ras or with an H-Ras/K-Ras C-terminus fusion
Procedure, shortened: (§1)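 Transformed Rat2 fibroblasts (H-Ras or H-Ras/K-Ras polybasic-tail fusion) treated with compound in 1% DMSO; after 4 h labelled with [35S]methionine 150 μCi/ml for 20 h. Lysates immunoprecipitated with anti-Ras Y13-259, resolved by 13.5% SDS-PAGE and autoradiography; CIC50 = concentration inhibiting 50% of Ras farnesylation from band intensities.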

Ras farnesyl transferase [3] = target: T2, Ras farnesyl transferase; test: In vivo (cellular) inhibitory activity for Ras farnesyl transferase, Rat2 cell line which expresses C-Harvey-Ras protein; type: cell-based
Procedure, shortened: as §1

Ras farnesyl transferase [4] = target: T1, Ras farnesyl transferase; test: In vitro inhibitory activity for Ras farnesyl transferase, K-Ras substrate; type: biochemical
[5] = recombinant farnesyl transferase 4.5 nM, Ras substrate protein 1.5 μM, tritium-farnesylpyrophosphate 0.15 μM, 30 minutes at 37° C., read-out: H-Ras IC50
[6] = Rat2 cell line transformed with H-Ras fused with polybasic lysine domain of K-Ras C-terminus, concentration inhibiting 50% of farnesyl bonding, read-out: K-Ras CIC50
[7] = Rat2 cell line expressing C-Harvey-Ras, concentration inhibiting 50% of farnesyl bonding of Ras protein, read-out: H-Ras CIC50
[8] = in vitro farnesyl transferase assay, K-Ras, read-out: K-Ras IC50

Compound | pIC50 (Ras farnesyl transferase [1]; [5]) | pIC50 (Ras farnesyl transferase [2]; [6]) | pIC50 (Ras farnesyl transferase [3]; [7]) | pIC50 (Ras farnesyl transferase [4]; [8]) | pIC50 (Ras farnesyl transferase [1]) | pIC50 (Ras farnesyl transferase [2]) | pIC50 (Ras farnesyl transferase [3]) | pIC50 (Ras farnesyl transferase [4])
CC(c1ccccc1)n1cncc1Cn1cc(C(=O)N2CCN(C)CC2)c(-c2cccc3ccccc23)c1 (stereo in doubt) [Compound 10, 1-[1-((R)-α-Methylbenzyl)-1H-imidazol-5-ylmethyl]-3-(4-methylpiperazin-1-yl)carbonyl-4-(naphthalen-1-yl)-1H-pyrrole] | 9.07 | 4.30 to 5.00 | 7.90 | 8.30 | – | – | – | –
CN1CCN(C(=O)c2cn(Cc3cncn3CCc3cccc4ccccc34)cc2-c2cccc3ccccc23)CC1 [Compound 32, 3-[4-Methylpiperazin-1-yl]carbonyl-4-(naphthalen-1-yl)-1-{1-[2-(naphthalen-1-yl)ethyl]-1H-imidazol-5-yl}methyl-1H-pyrrole] | 8.70 | 4.30 to 5.00 | 7.82 | 8.52 | – | – | – | –
O=C(c1cccs1)c1cn(Cc2c[nH]cn2)cc1-c1cccc2ccccc12 [Compound 44, 1-(1H-Imidazol-4-yl)methyl-4-(naphthalen-1-yl)-3-(thiophen-2-yl)carbonyl-1H-pyrrole] | 6.60 | 4.00 to 5.00 | 4.30 to 6.00 | 5.00 to 7.00 | – | – | – | –
COc1ccccc1CCn1cncc1Cn1cc(C(=O)N2CCN(C)CC2)c(-c2cccc3ccccc23)c1 [Compound 18, 1-[1-(2-Methoxy)phenethyl-1H-imidazol-5-yl]methyl-3-[4-methylpiperazin-1-yl]carbonyl-4-(naphthalen-1-yl)-1H-pyrrole] | 9.00 | 4.30 to 5.00 | 7.60 | 8.70 | – | – | – | –
Cn1cnc(Cn2cc(C(=O)c3ccc(F)cc3)c(-c3cccc4ccccc34)c2)c1 [Compound 78, 3-(4-Fluorobenzoyl)-1-(1-methyl-1H-imidazol-4-yl)methyl-4-(naphthalen-1-yl)-1H-pyrrole] | 8.35 | 4.00 to 5.00 | 7.00 | 6.70 | – | – | – | –
C[C@@H](c1ccccc1)n1cncc1Cn1cc(C(=O)N2CCN(C)CC2)c(-c2cccc3ccccc23)c1 [Compound 13, 1-[1-((S)-α-Methylbenzyl)-1H-imidazol-5-ylmethyl]-3-(4-methylpiperazin-1-yl)carbonyl-4-(naphthalen-1-yl)-1H-pyrrole] | 9.07 | 4.30 to 5.00 | 7.90 | 8.30 | – | – | – | –
Cc1ccc(C(=O)c2cn(Cc3c[nH]cn3)cc2-c2cn(C)c3ccccc23)cc1 [Compound 70] | 6.68 | 4.00 to 5.00 | 4.30 to 6.00 | 5.00 to 7.00 | – | – | – | –
COCCN(C)C(=O)c1cn(Cc2cncn2CCc2ccccc2OC)cc1-c1cccc2ccccc12 [Compound 17, 3-[N-(2-Methoxyethyl)-N-methyl]carbamoyl-1-[1-(2-methoxy)phenethyl-1H-imidazol-5-yl]methyl-4-(naphthalen-1-yl)-1H-pyrrole] | 8.70 | 4.30 to 5.00 | 7.60 | 8.52 | – | – | – | –
CN1CCN(C(=O)c2cn(Cc3cncn3CCc3ccccc3)cc2-c2cccc3ccccc23)CC1 [Compound 16, 3-(4-Methylpiperazin-1-yl)carbonyl-4-(naphthalen-1-yl)-1-[1-(phenethyl)-1H-imidazol-5-ylmethyl)-1H-pyrrole] | 8.92 | 4.30 to 5.00 | 7.90 | 8.30 | – | – | – | –
COCCN(C)C(=O)c1cn(Cc2cncn2CC(C)C)cc1-c1cccc2ccccc12 [Compound 115, 1-(1-Isobutyl-1H-imidazol-5-yl)methyl-3-[N-(2-methoxyethyl)-N-methyl]carbamoyl-4-(naphthalen-1-yl)-1H-pyrrole] | 8.70 | > 4.30 | 7.60 | 7.46 | – | – | – | –
COCCN(C)C(=O)c1cn(Cc2cncn2CCc2ccc(Br)cc2)cc1-c1cccc2ccccc12 [Compound 33, 1-[1-(4-Bromo)phenethyl-1H-imidazol-5-yl]methyl-3-[N-(2-methoxyethyl)-N-methyl]carbamoyl-4-(naphthalen-1-yl)-1H-pyrrole] | 8.70 | 4.30 to 5.00 | 7.74 | 8.52 | – | – | – | –
N#Cc1ccc(Cn2cncc2Cn2cc(C(=O)N3CCOCC3)c(-c3cccc4ccccc34)c2)cc1 [Compound 104] | 9.30 | > 5.00 | > 7.30 | 8.22 | – | – | – | –
C[C@@H](c1ccccc1)n1cncc1Cn1cc(C(=O)N2CCOCC2)c(-c2cccc3ccccc23)c1 [Compound 12, 1-[1-((S)-α-Methylbenzyl)-1H-imidazol-5-ylmethyl]-3-(morpholin-4-yl)carbonyl-4-(naphthalen-1-yl)-1H-pyrrole] | 8.30 | 4.30 to 5.00 | 7.60 | 8.18 | – | – | – | –
CN1CCN(C(=O)c2cn(Cc3cncn3Cc3cccc(Cl)c3)cc2-c2cccc3ccccc23)CC1 [Compound 131, 1-[1-(3-Chlorobenzyl)-1H-imidazol-5-yl]methyl-3-(4-methylpiperazin-1-yl)carbonyl-4-(naphthalen-1-yl)-1H-pyrrole] | 9.00 | 4.30 to 5.00 | 7.90 | 8.64 | – | – | – | –
COc1ccc(Cn2cncc2Cn2cc(C(=O)N3CCN(C)CC3)c(-c3cccc4ccccc34)c2)cc1 [Compound 130, 1-[1-(4-Methoxybenzyl)-1H-imidazol-5-yl] methyl-3-(4-methylpiperazin-1-yl)carbonyl-4-(naphthalen-1-yl)-1H-pyrrole] | 8.70 | 4.30 to 5.00 | 7.60 | 8.52 | – | – | – | –
N#Cc1ccc(Cn2cncc2Cn2ccc(C(=O)c3cccc4ccccc34)c2)cc1 [Compound 139, 1-[1-(4-Cyanobenzyl)-1H-imidazol-5-yl]methyl-3-(naphthalen-1-yl)carbonyl-1H-pyrrole] | – | – | – | – | 8.30 | 5.15 | 7.15 | 4.43
O=C(c1cn(Cc2c[nH]cn2)cc1-c1cccc2ccccc12)N1CCSCC1 [Compound 86] | 7.52 | < 4.30 | 5.70 | 5.00 to 7.00 | – | – | – | –
O=C(NCCO)c1cn(Cc2c[nH]cn2)cc1-c1cccc2ccccc12 [Compound 93] | 6.49 | 4.00 to 5.00 | 4.30 to 6.00 | 5.00 to 7.00 | – | – | – | –
CSCC[C@H](NC(=O)c1cn(Cc2c[nH]cn2)cc1-c1cccc2ccccc12)C(=O)O [Compound 81, (S)-3-[N-(1-Hydroxycarbonyl-3-methylthio)propyl]carbamoyl-1-(1H-imidazol-4-yl)methyl-4-(naphthalen-1-yl)-1H-pyrrole] | 6.17 | 4.00 to 5.00 | 4.30 to 6.00 | 5.00 to 7.00 | – | – | – | –
CN1CCN(C(=O)c2cn(Cc3cncn3Cc3ccc(F)cc3)cc2-c2cccc3ccccc23)CC1 [Compound 128, 1-[1-(4-fluorobenzyl)-1H-imidazol-5-yl]methyl-3-[4-methylpiperazin-1-yl]carbonyl-4-(naphthalen-1-yl)-1H-pyrrole] | 8.70 | 5.30 | 8.00 | 8.00 | – | – | – | –
Cc1ccc(Cn2cncc2Cn2cc(C(=O)N3CCN(C)CC3)c(-c3cccc4ccccc34)c2)cc1 [Compound 136] | 8.80 | 4.30 to 5.00 | 7.60 | 8.62 | – | – | – | –
Cn1cnc(Cn2cc(C(=O)c3ccc(Oc4ccccc4)cc3)c(-c3cccc4ccccc34)c2)c1 [Compound 79, 1-(1-Methyl-1H-imidazol-4-yl)methyl-4-(naphthalen-1-yl)-3-(4-phenoxybenzoyl)-1H-pyrrole] | 8.30 | < 4.30 | 7.00 | 7.00 | – | – | – | –
O=C(c1cn(CCCc2c[nH]cn2)cc1-c1cccc2ccccc12)N1CCOCC1 [Compound 109] | 5.07 | 4.00 to 5.00 | 4.30 to 6.00 | 4.30 to 6.00 | – | – | – | –
CN1CCN(C(=O)c2cn(Cc3cncn3Cc3cccc4ccccc34)cc2-c2cccc3ccccc23)CC1 [Compound 7, 3-(4-Methylpiperazin-1-yl)carbonyl-4-(naphthalen-1-yl)-1-[1-(naphthalen-1-ylmethyl)-1H-imidazol-5-ylmethyl]-1H-pyrrole] | 9.22 | 4.30 to 5.00 | 7.60 | 8.66 | – | – | – | –
COCCN(C)C(=O)c1cn(Cc2cncn2CCc2ccc(F)cc2)cc1-c1cccc2ccccc12 [Compound 35, 1-[1-(4-Fluoro)phenethyl-1H-imidazol-5-yl]methyl-3-[N-(2-methoxyethyl)-N-methyl]carbamoyl-4-(naphthalen-1-yl)-1H-pyrrole] | 9.00 | 4.30 to 5.00 | 7.60 | 8.70 | – | – | – | –
CN1CCN(C(=O)c2cn(Cc3cncn3Cc3ccc(Br)cc3)cc2-c2cccc3ccccc23)CC1 [Compound 125, 1-[1-(4-Bromobenzyl)-1H-imidazol-5-yl]methyl-3-[4-methylpiperazin-1-yl]carbonyl-4-(naphthalen-1-yl)-1H-pyrrole] | 8.70 | 5.40 | 8.22 | 8.40 | – | – | – | –
CSCc1cccc(C(=O)c2cn(Cc3c[nH]cn3)cc2-c2cccc3ccccc23)c1 [Compound 64] | 6.80 | 4.00 to 5.00 | 4.30 to 6.00 | 5.00 to 7.00 | – | – | – | –
1-[1-(4-Methoxybenzyl)-1H-imidazol-5-yl]methyl-3-[N-(2-methoxyethyl)-N-methyl]carbamoyl-4-(naphthalen-1-yl)-1H-pyrrole [Compound 129] | 8.52 | 4.30 to 5.00 | 7.60 | 8.40 | – | – | – | –

Reference: patent US6472526B1, “Imidazole derivatives having an inhibitory activity for farnesyl transferase and process for preparation thereof” (LG Chemical Ltd., priority 1997, dated 2002)
